Experiment [1] concerns scopolamine (0.7 mg/kg)-treated rats. Nature of the experiment: Elevated plus-maze test. As to conditions: for number of entries in the open arms vs. Sco-alone treated rats / percentage of the open arms time vs. scopolamine-alone treated rats: peptide 15 μM, Sco 0.7 mg/kg.
Method: At the beginning of the experiment, there have been selected 30 adult male rats (Cantacuzino Institute™, Romania) having an average weight of 350 g (±10 g) and four months old. The animals were housed in the animal unit under controlled conditions of light (a 12-h cycle starting at 07:00 h) and temperature (22° C.). Food and water were provided ad libitum throughout the experiment. […] Scopolamine hydrobromide (Sco, 0.7 mg/kg) was administered 30 min before behavioral in vivo approaches.
(§1) All surgical procedures were conducted under aseptic conditions, under sodium pentobarbital (50 mg/kg b.w., i.p., Sigma-Aldrich™, Darmstadt, Germany) anesthesia. Rats were mounted in the stereotaxic apparatus with the nose oriented 11° below horizontal zero plane. Two plastic guide cannulas (Portex™, 0.9 mm outer diameter) were bilaterally implanted stereotaxically in the dorsal hippocampus according to the following coordinates: A/P=3.6 mm, M/L=3.1 mm and D/V=2.4 mm. The cannulas were positioned with dental cement (Adhesor™ SpofaDental™) and secured by three stainless steel screw implanted into the skull. After surgery, the rats were isolated in separate cages and protected with a large spectrum antibiotic. Animals were given two weeks to recover from surgery and were handled daily during this period.
Behavior in the elevated plus-maze test (E.P.M.) is utilized to assess exploration, anxiety and motor behavior. Each rat was placed in the center of the maze facing one closed arm. […] The percentages of time spent in the open arms were calculated using the formula:
(time spent in the open arms/time spent in all arms)×100. • Forced Swimming Test
For experiment [2], the target named is T1, GST-GluA2-STEP32 C/S complex (Homo sapiens, UniProt P54829, C496S).
T1 construct: made in house; host or cells: STEP32 C/S: E. coli BL21(DE3); GST-GluA2: E. coli BL21
T1 sequence (P54829 282-563 C496S): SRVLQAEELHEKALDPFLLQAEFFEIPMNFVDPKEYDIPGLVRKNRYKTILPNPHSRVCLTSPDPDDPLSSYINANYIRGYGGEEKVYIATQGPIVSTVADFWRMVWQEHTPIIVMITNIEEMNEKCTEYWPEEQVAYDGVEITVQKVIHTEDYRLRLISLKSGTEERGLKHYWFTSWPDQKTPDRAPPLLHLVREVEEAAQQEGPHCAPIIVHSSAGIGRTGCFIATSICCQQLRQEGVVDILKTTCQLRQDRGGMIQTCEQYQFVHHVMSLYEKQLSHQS
Nature of the experiment: GST-GluA2-STEP32 pulldown (SDS-PAGE / western blot). Format: binding. How it is done:
Prior to binding and after contacting the beads with phosphorylated GST-GluA2, the beads were washed thoroughly with interaction buffer (25 mM HEPES, 150 mM NaCl, 1 mM MgCl2, 1% Triton™ X-100, 1 mM DTT, pH=7,5). Triton™ X-100 was used to avoid nonspecific binding and to minimize the risk of precipitation for any of the proteins. […] Beads were washed twice with wash buffer to remove excess STEP32 C/S. Results were analyzed using SDS-PAGE (FIG. 2A).
(A western blot detects proteins with antibodies after separation by electrophoresis.)

Experiment [3] deals with scopolamine (0.7 mg/kg)-treated rats. Description: Radial arm-maze test, scopolamine-induced cognitive impairment. As to conditions: for number of working memory errors vs. scopolamine-alone treated rats: peptide 15 μM into dorsal hippocampus; for number of working memory errors vs. scopolamine-alone treated rats / number of reference memory errors vs. scopolamine-alone treated rats: Sco 0.7 mg/kg; for number of reference memory errors vs. scopolamine-alone treated rats: peptide 15 μM.
Method: (§2) At the beginning of the experiment, there have been selected 30 adult male rats (Cantacuzino Institute™, Romania) having an average weight of 350 g (±10 g) and four months old. The animals were housed in the animal unit under controlled conditions of light (a 12-h cycle starting at 07:00 h) and temperature (22° C.). Food and water were provided ad libitum throughout the experiment. Rats were randomly divided into 6 groups (n=5 animals/group) as follows: Control group (sham-operated), Scopolamine (Sco) group (sham-operated, Sco: 0,7 mg/kg b.w., i.p., Sigma-Aldrich™, Darmstadt, Germany), and groups treated with TAT-p3Y, TAT-3Y, TAT-p3Ysh3, and TAT-pfin4 (15pIVI, GenScript™) received scopolamine. […] Scopolamine hydrobromide (Sco, 0.7 mg/kg) was administered 30 min before behavioral in vivo approaches.
as §1
As described before by Olton and Samuelson and Postu et al [63], using a radial arm maze test (RAM), the spatial memory was determined for one week.
The maze comprised eight arms marked from 1 to 8 (48 cm×12 cm), with a radial extension of 32 cm in diameter from the central area, and it had 50 mg food pellets at the end of arms 1, 2, 4, 5, and 7. Four days of habituation sessions were performed. Rats were instructed to move to the end of the arms and to eat the bait during 5 min sessions. After habituation, only one trial per day was granted to all rats. For working and reference memory tasks, each rat was individually placed in the center of the maze.

Experiment [4] shares this test system. Description: Y-maze test, scopolamine-induced cognitive impairment. As to conditions: peptide 15 μM; Sco 0.7 mg/kg.
Method: as §2, §1
Spontaneous alternation behavior was evaluated in a single-session Y-maze, as previously described by Jackson Postu et al [63]. In the present study, the Y-maze used was built of Plexiglas having the following dimensions: 25 cm high, 35 cm long, 10 cm wide for each arm, and a central area in an equilateral triangular shape. […] The percentage of the involuntary alternation was determined according to the formula:
For experiment [5] the test system is unchanged. Description: Forced swimming test.
Method: At the beginning of the experiment, there have been selected 30 adult male rats (Cantacuzino Institute™, Romania) having an average weight of 350 g (±10 g) and four months old. The animals were housed in the animal unit under controlled conditions of light (a 12-h cycle starting at 07:00 h) and temperature (22° C.). Food and water were provided ad libitum throughout the experiment. Rats were randomly divided into 6 groups (n=5 animals/group) as follows: Control group (sham-operated), Scopolamine (Sco) group (sham-operated, Sco: 0,7 mg/kg b.w., i.p., Sigma-Aldrich™, Darmstadt, Germany), and groups treated with TAT-p3Y, TAT-3Y, TAT-p3Ysh3, and TAT-pfin4 (15pIVI, GenScript™) received scopolamine. The doses of the peptides were chosen according to a previous report [60]. Scopolamine hydrobromide (Sco, 0.7 mg/kg) was administered 30 min before behavioral in vivo approaches. […]
The forced swimming test (F.S.T.) is used for assessing depressive-like responses [66]. The depressive-like response was assessed, basically using the same method described by Campos
et al. [67], but with modifications. […] During the test session, the following behavioral responses were recorded: (i) immobility (time spent floating with the minimal movements to keep the head above the water); and (ii) swimming (time spent with active swimming movements). • Statistical Analyses
The next experiment deals with T2, STEP32 WT (Homo sapiens, UniProt P54829).
T2 sequence (P54829 282-563): T1 sequence (P54829 282-563 C496S) with S215C
Nature of the experiment: In vitro dephosphorylation of pY876 of full length GluA2 by STEP32 WT (western blot).

The target of the next experiment is T3, BRAG2-GluA2 complex (Homo sapiens, UniProt Q6DN90, E620K).
T3 construct: GST-GluA2: E. coli BL21
Nature of the experiment: BRAG2-GluA2 pulldown with GSH Sepharose-coupled GST-GluA2 (SDS-PAGE). It is filed as binding. How it is done: A. SDS-PAGE gel of the species pulled down with GSH Sepharose-coupled GST-GluA2. On the first lane, only BRAG2 was present in the solution containing the beads. On lanes 2-4 the BRAG2 solution also contained 1 mM of different peptides. B. BRAG2 band intensities from A. normalized to the GS T-GluA2 band intensities.
Samples containing GST-GluA2 (150 μg) and BRAG2 (60 μg) were bound to Sepharose glutathione beads (20 μl). Prior to binding, the beads were washed thoroughly with interaction buffer (25 mM HEPES, 150 mM NaCl, 1 mM MgCl2, 1% Triton™ X-100, 1 mM DTT, pH=7.5). Triton™ X-100 was used to avoid nonspecific binding and to minimize the risk of protein precipitation. In a subsequent step, 3Y at different concentrations was added to the samples (1000 μM, 100 μM, 10 μM, 1 μM, 0.1 μM). A 2.5 mM solution (0.1 M PBS pH=7.4) was obtained. After incubating the samples for 90 minutes at 4 ° C. with stirring, the beads were washed with a buffer containing less Triton X-100 (25 mM HEPES, 150 mM NaCl, 1 mM MgCl2, 0.1% Triton™ X-100.1 mM DTT, pH=7.5). The species which remained trapped by the beads were analyzed by SDS-PAGE (FIG. 16).

Substitutions are numbered along the chain they refer to. “Also recorded” adds a separate entry of the source. Square brackets hold non-standard residues; d marks the D form. Ends that are not written are not given here. pY = N[C@@H](Cc1ccc(OP(=O)(O)O)cc1)C(=O)O

T3 sequence (Q6DN90 with tags, fused parts or gaps E620K): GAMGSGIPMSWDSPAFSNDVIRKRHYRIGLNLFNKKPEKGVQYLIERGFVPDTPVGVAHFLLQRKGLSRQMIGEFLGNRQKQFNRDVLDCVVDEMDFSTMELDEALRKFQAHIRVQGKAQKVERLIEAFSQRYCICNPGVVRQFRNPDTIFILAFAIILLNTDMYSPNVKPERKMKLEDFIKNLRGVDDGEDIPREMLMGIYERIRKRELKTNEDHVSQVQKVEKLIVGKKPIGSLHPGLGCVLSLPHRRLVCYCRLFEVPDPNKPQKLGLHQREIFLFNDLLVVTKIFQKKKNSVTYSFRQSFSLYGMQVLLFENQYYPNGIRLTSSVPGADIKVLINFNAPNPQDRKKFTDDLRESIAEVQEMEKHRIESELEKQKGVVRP
From the text for STEP32 WT: GluA2-FL phosphorylated at Y876 site was immunoprecipitated from HEK293T cells overexpressing GluA2 and vSrc using anti-GluA2 antibodies and then submitted to in vitro dephosphorylation by purified STEP32 WT, in presence versus absence of TAT-phosphopeptides: TAT-p3Y, TAT-p3Y-sh3 and TAT-p-fin4. The dephosphorylation of the pY876 site of GluA2 FL was detected by western blotting using anti-pY876 antibodies and anti-GluA2 antibodies.
The results represent mean±SEM of three independent experiments.
Therefore, HEK293 cells were transfected with a pCMV-SPORT6-GRIA2 mammalian expression vector containing the cDNA of full length GluA2 (GluA2-FL). […] A sample consisting of immunoprecipitated GluA2 FL untreated with either STEP32 or peptides was also included into the study, as a control.

Take “(TAT-)p3Y-sh3: p3Ysh-3 (EGYNVpY) N-terminally fused to the TAT cell-penetrating sequence (GRKKRRQRRRPQEGYNV[pY])”: in experiment [1], the “number of entries in the open arms vs. Sco-alone treated rats” value is recorded as “high number of entries in the open arms” and the “percentage of the open arms time vs. scopolamine-alone treated rats” value was “high percentage of the open arms time”. In addition, the “inhibition of formation of the GST-GluA2-STEP32 C/S complex” value in experiment [2] is given as “significantly inhibit the interaction”. In addition, in experiment [3], the “number of working memory errors vs. scopolamine-alone treated rats” value is “significant reduction in the number of working memory errors” and the “number of reference memory errors vs. scopolamine-alone treated rats” value is reported as “significant reduction in the number of reference memory errors”. Besides, the “spontaneous alternation percentage / working memory vs. scopolamine alone” value in experiment [4] is given as “successfully countered the effect of scopolamine on working-memory”.

Take “(TAT-)p3Y: p3Y N-terminally fused to the TAT cell-penetrating sequence GRKKRRQRRRPQ [reference compound]”: the “inhibition of formation of the GST-GluA2-STEP32 C/S complex” value in experiment [2] is recorded as “significantly inhibit the interaction”. Moreover, in experiment [3] (15 μM, Tukey's post hoc, n=5, FIG. 10), the “p, Sco vs. peptide, number of reference memory errors” value is given as under 0.01. The “number of working memory errors vs. scopolamine-alone treated rats” value in experiment [3] is listed as “significant reduction in the number of working memory errors”. Also, in experiment [5] (15 μM, Tukey's post hoc, n=5, FIG. 12), the “p, Sco vs. peptide, immobility time” value is listed as under 0.0001. Further, the “immobility time” value in experiment [5] (peptide 15 μM, Sco 0.7 mg/kg) is given as “significant decline of the immobility time”. In addition, in experiment [4], the “spontaneous alternation percentage / working memory vs. scopolamine alone” value is recorded as “successfully countered the effect of scopolamine on working-memory”.

As to “(TAT-)p-fin 4: p-fin4 (EGYNVpYE) N-terminally fused to the TAT cell-penetrating sequence (GRKKRRQRRRPQEGYNV[pY]E)”, in experiment [1], the “number of entries in the open arms vs. Sco-alone treated rats” value is given as “high number of entries in the open arms” and the “percentage of the open arms time vs. scopolamine-alone treated rats” value is given as “high percentage of the open arms time”. In addition, the “inhibition of pY876 GluA2-FL dephosphorylation by STEP32 WT” value in the experiment with STEP32 WT (0.1 mM and 1 mM peptide) is listed as “highest inhibition of GluA2 dephosphorylation”. Moreover, the “P, no peptide sample vs. peptide + STEP32 WT sample, pY876 band intensity” value with STEP32 WT (1 mM peptide, unpaired t-test with Welch's correction) is recorded as under 0.05. Also, the “inhibition of formation of the GST-GluA2-STEP32 C/S complex” value in experiment [2] is listed as “strongest inhibitory effect; also recorded: significantly inhibit the interaction”. For the same substance, in experiment [3], the “number of working memory errors vs. scopolamine-alone treated rats” value is reported as “significant reduction in the number of working memory errors” and the “number of reference memory errors vs. scopolamine-alone treated rats” value is “significant reduction in the number of reference memory errors”. Besides, in experiment [4], the “spontaneous alternation percentage / working memory vs. scopolamine alone” value was “successfully countered the effect of scopolamine on working-memory”.

Regarding “ATYKEGYNVYG (not fully specified (residue 10)) [3Y, reference compound]”, the “p, Sco vs. peptide, open arms time %” value in experiment [1] (15 μM, Tukey's post hoc, n=5, FIG. 13) is reported as under 0.001. For the same substance, in the experiment with BRAG2-GluA2 complex (3Y in the range of concentrations 10 μM-1 mM), the “disruption of the BRAG2-GluA2 complex” value is on record as “successfully disrupts the BRAG2-GluA2 complex”.

For the substance “EGYNVY (Interference peptide capable of inhibiting the formation/disrupting the STEP-GluA2 complex or the GluA2-BRAG2 complex) [3Y-sh3, (uncoupled) novel 3Y-sh3 peptide, non-phosphorylated hexapeptide]”, the “effect on the GST-GluA2-BRAG2 complex” value in the experiment with BRAG2-GluA2 complex (1 mM peptide (FIG. 17)) is given as “significant disrupting effect”.

These data come from patent US20240067677A1, “Interference Peptides As Inhibitors Of Interactions Related To Ampar Endocytosis” (priority 2020, published 2024).
